According to patent US20250289789A1, “REVERSIBLE LYSINE COVALENT MODIFIERS OF CDK2 AND USES THEREOF” (Terremoto Biosciences, Inc., priority 2023, published 2025):
Entries after “also recorded” stand apart in the source; their conditions may differ. Read-outs that look alike come from different tables or passages of the source.

How the values were obtained:
[1] = biological target: T1, CDK1-NanoLuc fusion with CCNB1 in 293T or 293 cells (Homo sapiens, UniProt P06493); test: NanoBRET Target Engagement (TE) Intracellular Kinase Assay, CDK1/CCNB1; type: cell-based; details: NanoBRET TE intracellular kinase assay, 2-hour incubation, read-out: NanoBRET-CDK1/B1 IC50
T1 construct: host or cells: 293T (ATCC CRL-3216) or 293 (ATCC CRL-1573)
Summary of the method: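 293T or 293 cells co-transfected with CDK1-NanoLuc and CCNB1 vectors, incubated 24 h, then exposed to NanoBRET Tracer K-10 plus compound for 2 h at 37° C. BRET ratio (610/450 nm) normalized to DMSO; IC50 from four-parameter logistic fit.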

[2] = biological target: T2, CDK2-NanoLuc fusion with CCNE1 in 293T or 293 cells (Homo sapiens, UniProt P24941); test: NanoBRET Target Engagement (TE) Intracellular Kinase Assay, CDK2/CCNE1; type: cell-based; details: 2-hour incubation
T2 construct: host or cells: 293T (ATCC CRL-3216) or 293 (ATCC CRL-1573)

[3] = biological target: T3, CDK4-NanoLuc fusion with CCND1 in 293T or 293 cells (Homo sapiens, UniProt P11802); test: NanoBRET Target Engagement (TE) Intracellular Kinase Assay, CDK4/CCND1; type: cell-based; details: NanoBRET TE intracellular kinase assay, 2-hour incubation, read-out: NanoBRET-CDK4/D1 IC50
T3 construct: host or cells: 293T (ATCC CRL-3216) or 293 (ATCC CRL-1573)

[4] = test system: Phospho-Rb Ser807/811 in OVCAR3 cells; test: OVCAR3 Phospho-Rb Ser807/811 HTRF assay; type: cell-based; details: Homo sapiens, OVCAR-3, 1 h, read-out: pRb-OVCAR3 IC50
Protocol: Cells were trypsinized and resuspended in 1 mM hydroxyurea (Sigma; H8627), 90% RPMI and 10% fetal bovine serum. […] Dose response curve normalized to DMSO control was plotted using four-parameter logistic model for IC50 calculation.

pCDK2-CCNE1 proteins = pCDK2-CCNE1 proteins (Homo sapiens, UniProt P24941); test: Identification of covalent binding by intact mass spectrometry, with and without competitor PF-06873600; details: for Observed mass value of the covalent complex between compound and CDK2 protein: intact mass spectrometry after borohydride reduction, unmodified CDK2 34096-34097 Da; for Covalent complex formation with CDK2 protein (intact mass spectra after sodium borohydride reduction) / Binding pocket by competition: complex formation in presence of molar excess PF-06873600: pCDK2-CCNE1 1 μM, compound 1.5 μM; for Covalent complex formation with CDK2 protein (intact mass spectra after sodium borohydride reduction): 1 hour at room temperature or 37° C., no competitor; for Binding pocket by competition: complex formation in presence of molar excess PF-06873600: competitor PF-06873600 20 μM
Protocol: pCDK2-CCNE1 proteins (1 μM) were treated with a compound (1.5 μM) from Table 4 for 1 hour at room temperature or 37° C., with and without competitor molecule PF-06873600 (20 μM final concentration) as a specificity control. As used herein, the competitor molecule is
As used herein, the competitor molecule is 6-(difluoromethyl)-8-((1R,2R)-2-hydroxy-2-methylcyclopentyl)-2-((1-(methylsulfonyl)piperidin-4-yl)amino)pyrido[2,3-d]pyrimidin-7(8H)-one (PF-06873600). Reversible imines were captured by reductive amination with the addition of 5 mM sodium borohydride at room temperature for 5 min. Reduction reactions were quenched by diluting the sample in equal volume of 1% trifluoroacetic acid (v/v) in acetonitrile, then analyzed by LC-MS. Deconvoluted monoisotopic intensities of unmodified and compound-modified mass peaks were compared.
FIGS. 1A to 1P provide intact mass spectra for pCDK2-CCNE1 proteins after incubation with compounds of the present disclosure and subsequent sodium borohydride reduction. […] Further, FIGS. 1A to 1P each provide intact mass spectra following the incubation of pCDK2-CCNE1 proteins with a compound of the present disclosure both in the absence of a competitor molecule (i.e., PF-06873600, a molecule known to bind to and inhibit the function of CDK2); and in the presence of a significant stoichiometric excess of a competitor molecule PF-06873600.
FIGS. 2A to 2N provide intact mass spectra for pCDK2-CCNE1 proteins after incubation with compounds of the present disclosure and subsequent sodium borohydride reduction.

[5] = NanoBRET TE intracellular kinase assay, read-out: NanoBRET-CDK2/E1 IC50
[6] = OVCAR3 cells, Phospho-Rb Ser807/811 HTRF, 1 hour incubation
[7] = NanoBRET-CDK2/E1 IC50, NanoBRET TE intracellular kinase assay

T1 sequence (P06493 whole entry, the tested form may be a part): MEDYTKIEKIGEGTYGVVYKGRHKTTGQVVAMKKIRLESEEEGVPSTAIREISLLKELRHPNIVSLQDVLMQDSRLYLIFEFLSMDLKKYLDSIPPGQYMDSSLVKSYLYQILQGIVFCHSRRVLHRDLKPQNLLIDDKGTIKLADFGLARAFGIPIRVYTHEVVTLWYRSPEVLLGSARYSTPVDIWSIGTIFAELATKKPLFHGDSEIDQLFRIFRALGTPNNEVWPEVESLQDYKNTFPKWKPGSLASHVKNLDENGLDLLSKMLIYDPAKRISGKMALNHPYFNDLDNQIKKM
T1 sequence (P14635 whole entry partner, the tested form may be a part): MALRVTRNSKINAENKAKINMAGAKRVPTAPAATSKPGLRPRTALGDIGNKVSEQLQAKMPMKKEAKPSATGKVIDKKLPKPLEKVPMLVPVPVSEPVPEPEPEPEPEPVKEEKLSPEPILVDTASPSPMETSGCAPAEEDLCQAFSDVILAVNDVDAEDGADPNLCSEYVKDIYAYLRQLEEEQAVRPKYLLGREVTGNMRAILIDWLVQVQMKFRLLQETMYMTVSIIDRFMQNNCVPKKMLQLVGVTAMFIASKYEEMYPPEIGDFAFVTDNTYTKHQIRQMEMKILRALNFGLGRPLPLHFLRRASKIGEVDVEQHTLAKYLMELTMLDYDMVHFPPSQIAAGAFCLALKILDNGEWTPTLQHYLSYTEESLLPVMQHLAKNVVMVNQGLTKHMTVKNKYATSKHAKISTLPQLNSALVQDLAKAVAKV
T3 sequence (P11802 whole entry, the tested form may be a part): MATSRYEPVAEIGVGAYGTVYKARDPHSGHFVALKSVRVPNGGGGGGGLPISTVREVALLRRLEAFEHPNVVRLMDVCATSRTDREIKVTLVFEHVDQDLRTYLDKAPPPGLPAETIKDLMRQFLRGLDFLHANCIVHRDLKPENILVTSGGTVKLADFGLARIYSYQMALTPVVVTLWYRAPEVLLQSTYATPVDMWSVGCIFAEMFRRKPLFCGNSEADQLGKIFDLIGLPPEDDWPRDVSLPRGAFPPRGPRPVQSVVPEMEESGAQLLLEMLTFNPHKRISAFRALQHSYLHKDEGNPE
T3 sequence (P24385 whole entry partner, the tested form may be a part): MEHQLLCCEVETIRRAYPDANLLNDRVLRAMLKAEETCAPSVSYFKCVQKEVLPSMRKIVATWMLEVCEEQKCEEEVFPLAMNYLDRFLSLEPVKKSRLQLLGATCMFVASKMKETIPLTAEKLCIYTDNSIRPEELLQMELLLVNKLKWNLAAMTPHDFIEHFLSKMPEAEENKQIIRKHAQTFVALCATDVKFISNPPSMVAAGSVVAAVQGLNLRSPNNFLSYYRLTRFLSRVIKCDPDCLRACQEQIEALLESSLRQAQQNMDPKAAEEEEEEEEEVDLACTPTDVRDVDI

Row | IC50 [1] | IC50 [2, 5] | IC50 [3] | IC50 [4, 6] | Observed mass value of the covalent complex between compound and CDK2 protein (pCDK2-CCNE1 proteins) | SMILES | Covalent complex formation with CDK2 protein (intact mass spectra after sodium borohydride reduction) (pCDK2-CCNE1 proteins) | Covalent complex formation with CDK2 protein (intact mass spectra after sodium borohydride reduction) (pCDK2-CCNE1 proteins; 2,2,2-trifluoroacetate) | Binding pocket by competition: complex formation in presence of molar excess PF-06873600 (pCDK2-CCNE1 proteins) | IC50 [2, 7] | IC50 [4] | Covalent complex formation with CDK2 protein (intact mass spectra after sodium borohydride reduction) (pCDK2-CCNE1 proteins; trifluoroacetic acid)
1 | 9.52 nM | 2.76 nM | > 6430 nM | 33.2 nM | 34539 Da | COc1cc(O)c(C=O)c(OCC(=O)Nc2cc([C@H]3CC[C@@H](OC(=O)NC(C)C)C3)[nH]n2)c1 [Compound 64, (1R,3S)-3-{5-[2-(2-formyl-3-hydroxy-5-methoxyphenoxy)acetamido]-2H-pyrazol-3-yl}cyclopentyl N-isopropylcarbamate] | resulted in covalent complex formation |  |  |  |  | 
2 | 16.7 nM | 4.87 nM | 4580 nM | 226 nM | 34561 Da | CC(C)NC(=O)O[C@@H]1CC[C@H](c2cc(NC(=O)c3cc(-c4cccc(O)c4C=O)nn3C)n[nH]2)C1 [Compound 17, (1R,3S)-3-{5-[5-(2-formyl-3-hydroxyphenyl)-2-methylpyrazole-3-amido]-2H-pyrazol-3-yl}cyclopentyl N-isopropylcarbamate 2,2,2-trifluoroacetate] |  | formed a covalent complex with CDK2 protein; also recorded: resulted in covalent complex formation | bound to the same binding pocket of CDK2 as the competitor molecule PF-06873600 |  |  | 
3 | 52 nM | 4.66 nM | 4920 nM | 352 nM | 34525 Da | CC(C)NC(=O)O[C@@H]1CC[C@H](c2cc(NC(=O)[C@@H](C)Oc3cccc(O)c3C=O)n[nH]2)C1 [Compound 32, (1R,3S)-3-{5-[(2R)-2-(2-formyl-3-hydroxyphenoxy)propanamido]-2H-pyrazol-3-yl}cyclopentyl N-isopropylcarbamate] | formed a covalent complex with CDK2 protein |  | bound to the same binding pocket of CDK2 as the competitor molecule PF-06873600 |  |  | 
4 | 11.3 nM | 3.32 nM | 4420 nM | 43.2 nM | 34523 Da | CC1(NC(=O)O[C@@H]2CC[C@H](c3cc(NC(=O)COc4cccc(O)c4C=O)n[nH]3)C2)CC1 [Compound 82, (1R,3S)-3-{5-[2-(2-formyl-3-hydroxyphenoxy)acetamido]-2H-pyrazol-3-yl}cyclopentyl N-(1-methylcyclopropyl)carbamate; trifluoroacetic acid] | resulted in covalent complex formation |  |  |  |  | 
5 | 11.3 nM | 2.27 nM | 1280 nM | 44.7 nM | 34550 Da | COc1cc(O)c(C=O)c([C@@H]2C[C@H]2C(=O)Nc2cc([C@H]3CC[C@@H](OC(=O)NC(C)C)C3)[nH]n2)c1 (mixture of isomers) [Compound 89, (1R,3S)-3-{5-[trans-2-(2-formyl-3-hydroxy-5-methoxyphenyl)cyclopropaneamido]-2H-pyrazol-3-yl}cyclopentyl N-isopropylcarbamate] | resulted in covalent complex formation |  |  |  |  | 
6 | 17.3 nM | 3.72 nM | > 9900 nM | 102 nM | 34511 Da | CC(C)NC(=O)O[C@@H]1CC[C@H](c2cc(NC(=O)COc3cccc(O)c3C=O)n[nH]2)C1 [Compound 11, (1R,3S)-3-{5-[2-(2-formyl-3-hydroxyphenoxy)acetamido]-2H-pyrazol-3-yl}cyclopentyl N-isopropylcarbamate] | formed a covalent complex with CDK2 protein; also recorded: resulted in covalent complex formation |  | bound to the same binding pocket of CDK2 as the competitor molecule PF-06873600 |  |  | 
7 | 92.9 nM | 12.4 nM | 4700 nM | 701 nM | 34546 Da | CC(C)NC(=O)O[C@@H]1CC[C@H](c2cc(Nc3cc(Oc4cccc(O)c4C=O)ccn3)n[nH]2)C1 [Compound 13, (1R,3S)-3-(5-{[4-(2-formyl-3-hydroxyphenoxy)pyridin-2-yl]amino}-2H-pyrazol-3-yl)cyclopentyl N-isopropylcarbamate; trifluoroacetic acid] | formed a covalent complex with CDK2 protein |  | bound to the same binding pocket of CDK2 as the competitor molecule PF-06873600 |  |  | 
8 | 71.6 nM | 11.3 nM | 361 nM | 361 nM |  | CC(C)NC(=O)O[C@@H]1CC[C@H](c2cc(NC(=O)Nc3ccc(O)c(C=O)c3)n[nH]2)C1 [Compound 33, (1R,3S)-3-(5-{[(3-formyl-4-hydroxyphenyl)carbamoyl]amino}-2H-pyrazol-3-yl)cyclopentyl N-isopropylcarbamate] | resulted in covalent complex formation |  |  |  |  | 

Row | SMILES | IC50 [1] | IC50 [2, 5] | IC50 [3] | IC50 [4, 6] | Observed mass value of the covalent complex between compound and CDK2 protein (pCDK2-CCNE1 proteins) | Covalent complex formation with CDK2 protein (intact mass spectra after sodium borohydride reduction) (pCDK2-CCNE1 proteins) | Covalent complex formation with CDK2 protein (intact mass spectra after sodium borohydride reduction) (pCDK2-CCNE1 proteins; 2,2,2-trifluoroacetate) | Binding pocket by competition: complex formation in presence of molar excess PF-06873600 (pCDK2-CCNE1 proteins) | IC50 [2, 7] | IC50 [4] | Covalent complex formation with CDK2 protein (intact mass spectra after sodium borohydride reduction) (pCDK2-CCNE1 proteins; trifluoroacetic acid)
9 | CC(C)NC(=O)O[C@@H]1CC[C@H](c2cc(NC(=O)c3cc(-c4c(F)ccc(O)c4C=O)nn3C)n[nH]2)C1 [Compound 45, (1R,3S)-3-(3-(3-(6-fluoro-2-formyl-3-hydroxyphenyl)-1-methyl-1H-pyrazole-5-carboxamido)-1H-pyrazol-5-yl)cyclopentyl isopropylcarbamate] | 6.81 nM |  | 1580 nM | 114 nM | 34579 Da |  |  |  | 2.8 nM |  | 
10 | CC(C)NC(=O)O[C@@H]1CC[C@H](c2cc(NC(=O)Cc3cnn(-c4cccc(O)c4C=O)c3)n[nH]2)C1 [Compound 16, (1R,3S)-3-(5-{2-[1-(2-formyl-3-hydroxyphenyl)pyrazol-4-yl]acetamido}-2H-pyrazol-3-yl)cyclopentyl N-isopropylcarbamate; trifluoroacetic acid] | 75.9 nM |  | 626 nM |  | 34561 Da | formed a covalent complex with CDK2 protein |  | bound to the same binding pocket of CDK2 as the competitor molecule PF-06873600 | 34.3 nM | 585 nM | 
11 | CC(C)NC(=O)O[C@@H]1CC[C@H](c2cc(NC(=O)c3ccnc(Oc4cccc(O)c4C=O)c3)n[nH]2)C1 [Compound 69, (1R,3S)-3-{5-[2-(2-formyl-3-hydroxyphenoxy)pyridine-4-amido]-2H-pyrazol-3-yl}cyclopentyl N-isopropylcarbamate; trifluoroacetic acid] | 79 nM |  | 1950 nM |  | 34574 Da |  |  | bound to the same binding pocket of CDK2 as the competitor molecule PF-06873600 | 1.92 nM | 730 nM | formed a covalent complex with CDK2 protein; also recorded: resulted in covalent complex formation
